# In PubChem BioAssay (NCI):
# Several values for one entry are separate records, joined by “and”; a condition that tells them apart may be missing. Equal entries are not always repeated.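 Briefly, cells in 96-well plates were exposed to five compound concentrations for 48 h, and endpoints were estimated by linear interpolation. At the GI50, growth is halved. The concentration for full growth arrest is given as TGI.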
# Assays:
# Assay in all cases: NCI anticancer screen, dose series, 48 h
# [1] = tested on: M14 melanoma
# [2] = tested on: UACC-62 melanoma
# [3] = tested on: 786-0 renal
# [4] = tested on: SNB-75 CNS
# [5] = tested on: A549 NSCLC
# [6] = tested on: EKVX NSCLC
# [7] = tested on: HOP-92 NSCLC
# [8] = tested on: HOP-62 NSCLC
# [9] = tested on: SK-MEL-5 melanoma
# [10] = tested on: HL-60(TB) leukemia
Structure (SMILES),TGI [1],TGI [2],TGI [3],TGI [4],TGI [5],TGI [6],TGI [7],TGI [8],TGI [9],TGI [10],GI50 [1],GI50 [3],GI50 [4],GI50 [5],GI50 [6],GI50 [7],GI50 [8],GI50 [9],GI50 [10],GI50 [2]
[N-]=[N+]=NC12CC3C4CC5CC3C(C1)C(C5)C4C2,> 100 µM,> 100 µM,> 100 µM,> 100 µM,> 100 µM,> 100 µM,> 100 µM,> 100 µM,> 100 µM,–,–,–,–,–,–,–,–,–,–,–
O=[N+]([O-])c1ccc(C2=Nn3cnnc3SC2)o1,32.8 µM,–,32.1 µM,51.7 µM,56.7 µM,–,49.4 µM,89.5 µM,31.5 µM,37.6 µM,–,–,–,–,–,–,–,–,–,–
CC(C)=CCNc1ncnc2c1ncn2C1OC(CO)C(O)C1O (configuration not stated),> 766 µM,> 1000 µM,11.4 µM,55.9 µM,299 µM,> 1000 µM,3.99 µM,6.7 µM,> 1000 µM,0.822 µM,2.85 µM,1.37 µM,2.52 µM,2.85 µM,7.79 µM,1.14 µM,1.3 µM,5.74 µM,0.29 µM,–
COC1(OC)CC2C(=O)N(Cc3ccccc3)C1C(S(=O)(=O)c1ccccc1)C2S(=O)(=O)c1ccccc1 (configuration not stated),28.5 µM,26.2 µM,30.7 µM,27.6 µM,75 µM,–,34 µM,> 100 µM,34 µM,17.3 µM,–,–,–,–,–,–,–,–,–,–
N#Cc1c(NN)n(C2OC(CO)C(O)C2O)c2ncnc(N)c12 (configuration not stated),0.303 µM,0.308 µM,4.77 µM,9.56 µM,> 100 µM,–,1.43 µM,2.02 µM,3.05 µM,0.109 µM,0.0532 µM,0.228 µM,0.388 µM,0.0353 µM,0.209 µM,0.142 µM,0.247 µM,0.461 µM,0.022 µM,0.126 µM
C=C1CC[C@@H]2[C@](C)(COC(C)=O)[C@H](OC(C)=O)CC[C@@]2(C)[C@@H]1CC(Sc1ccccc1)C1=CCOC1=O (some centres not stated),3.69 µM,3.24 µM,3.64 µM,2.9 µM,7.77 µM,10.4 µM,8.71 µM,5.52 µM,2.82 µM,2.27 µM,1.47 µM,1.9 µM,1.3 µM,2.73 µM,2.43 µM,2.71 µM,2.89 µM,1.42 µM,0.43 µM,1.3 µM
CCN(CC)CCC(CNc1ccnc2cc(Cl)ccc12)c1ccc(OC)cc1 (configuration not stated),3.61 µM and 3.73 µM,5.02 µM and 4.01 µM,25.8 µM and 11.8 µM,17.3 µM and 7.84 µM,32.5 µM and 26.1 µM,57.7 µM and > 100 µM,14.3 µM and 11.5 µM,39.2 µM and 34 µM,3.09 µM,25.3 µM and 20.4 µM,1.86 µM and 1.88 µM,11.9 µM and 3.46 µM,3.39 µM and 2.35 µM,16.3 µM and 11.3 µM,6.44 µM and 12.7 µM,2.42 µM and 2.12 µM,14.4 µM and 9.7 µM,1.64 µM,6.59 µM and 3.76 µM,2.31 µM and 1.86 µM
COc1cc(N(CCC#N)CCC#N)ccc1/C(N=Nc1ccc([N+](=O)[O-])cc1)=N/NC(=O)c1cc(Br)ccc1O,148 µg/mL,> 150 µg/mL,> 150 µg/mL,83.6 µg/mL,140 µg/mL,> 150 µg/mL,> 150 µg/mL,–,46.9 µg/mL,> 150 µg/mL,44.5 µg/mL,46.4 µg/mL,28.4 µg/mL,44.4 µg/mL,42.8 µg/mL,79.6 µg/mL,–,26.3 µg/mL,49.2 µg/mL,40.9 µg/mL
CC(=O)c1cccc(NC(=O)C(=O)NNc2n[nH]c(=S)n2N)c1,6.15 µM,3.72 µM,25.5 µM,25.2 µM,14.5 µM,29 µM,28.7 µM,29.3 µM,2.6 µM,32.1 µM,–,–,–,–,–,–,–,–,–,–
Cn1c2ccccc2c2c3c(c4c5cc(Br)ccc5n(C)c4c21)C(=O)N(O)C3=O,–,> 100 µM,1.4 µM,0.659 µM,> 100 µM,–,–,–,0.403 µM,–,–,0.289 µM,0.0595 µM,0.262 µM,–,0.18 µM,–,0.129 µM,–,0.308 µM
Cc1nn(-c2ccccc2)c2nc(N3CCOCC3)nnc12,> 100 µM,> 100 µM,> 100 µM,> 100 µM,> 100 µM,> 100 µM,–,> 100 µM,> 100 µM,–,–,–,–,–,–,–,–,–,–,–
O=C(O)CCC(=O)c1ccc[nH]1,> 100 µM,> 100 µM,> 100 µM,> 100 µM,> 100 µM,> 100 µM,> 100 µM,> 100 µM,> 100 µM,–,–,–,–,–,–,–,–,–,–,–
COc1ccc2c3c([nH]c2c1[N+](=O)[O-])C(C)=NCC3,> 100 µM,62.3 µM,> 100 µM,> 100 µM,> 100 µM,> 100 µM,–,> 100 µM,–,> 100 µM,–,–,–,–,–,–,–,–,–,–
CCN1CCN(C(c2ccc(C(F)(F)F)cc2)c2ccc3cccnc3c2O)CC1 (configuration not stated),5.87 µM,10.4 µM,7.5 µM,17 µM,12.1 µM,–,25.3 µM,13.7 µM,7.83 µM,5.6 µM,1.7 µM,2.34 µM,1.84 µM,1.31 µM,–,3.62 µM,1.32 µM,2.35 µM,2.09 µM,1.98 µM
CN1CCN(CCOc2ccc(-c3cnc4c(-c5ccccc5F)cnn4c3)cc2)CC1,3.52 µM,3.17 µM,3.29 µM,2.66 µM,–,3.37 µM,3.15 µM,3.54 µM,3 µM,–,1.82 µM,1.78 µM,1.35 µM,–,1.65 µM,1.31 µM,1.7 µM,1.63 µM,–,1.69 µM
C=C1C(=O)O[C@@H]2C[C@@H]1CC/C(C)=C/CC/C(C)=C/CC[C@@]2(C)O,8.37 µM,29.3 µM,24 µM,47.4 µM,41.2 µM,48.9 µM,19.8 µM,–,36.4 µM,8.95 µM,2.04 µM,11.5 µM,26.4 µM,18.2 µM,23.5 µM,3.96 µM,–,16.2 µM,3.04 µM,14 µM
CC1=NNC(=O)C2CCC(=O)N12 (configuration not stated),> 100 µM,–,> 100 µM,> 100 µM,> 100 µM,> 100 µM,–,> 100 µM,> 100 µM,> 100 µM,–,–,–,–,–,–,–,–,–,–
N#Cc1nc(Nc2cccc3ccccc23)sc1N,> 100 µM,59 µM,> 100 µM,> 100 µM,> 100 µM,–,52.3 µM,> 100 µM,–,> 100 µM,–,–,–,–,–,–,–,–,–,–

Structure (SMILES),TGI [1],TGI [2],TGI [3],TGI [4],TGI [5],TGI [6],TGI [7],TGI [8],TGI [9],TGI [10],GI50 [1],GI50 [3],GI50 [4],GI50 [5],GI50 [6],GI50 [7],GI50 [8],GI50 [9],GI50 [10],GI50 [2]
Cc1cc([N+](=O)[O-])ccc1Nc1cccc(Cl)c1C,29.1 µM,27.2 µM,31.9 µM,52.7 µM,40.2 µM,49.8 µM,–,28 µM,29.1 µM,41.6 µM,–,–,–,–,–,–,–,–,–,–
OC[C@H]1C[C@](O)(c2ccc(Cl)cc2)[C@@H](c2ccc(Cl)cc2)O1,–,31.6 µM,55.9 µM,87.7 µM,78.7 µM,48.2 µM,45.6 µM,51.8 µM,29.3 µM,49.2 µM,–,22.4 µM,22.9 µM,29.6 µM,18.2 µM,16.8 µM,20.9 µM,15.3 µM,17.6 µM,16 µM
O=C(/C=C/c1ccccc1O)c1ccccc1O,–,> 100 µM,> 100 µM,> 100 µM,> 100 µM,> 100 µM,> 100 µM,> 100 µM,> 100 µM,> 100 µM,–,–,–,–,–,–,–,–,–,–
Cc1ccc(Cc2c(=O)[nH]nc3ccccc23)cc1,> 100 µM,> 100 µM,> 100 µM,> 100 µM,> 100 µM,> 100 µM,> 100 µM,> 100 µM,> 100 µM,–,–,–,–,–,–,–,–,–,–,–
CC(C)c1ccc2c(c1)CC[C@@H]1[C@@](C)(C(=O)O)CCC[C@]21C,22.1 µM,18.4 µM,17 µM,–,25 µM,6.94 µM,76.8 µM,22.7 µM,16.5 µM,20.9 µM,10.4 µM,4.58 µM,–,5.56 µM,1.82 µM,20.7 µM,10.8 µM,5.02 µM,3.4 µM,4.87 µM
Cc1nc2c(-c3cnc(N)nc3)nc(N3CCOCC3)nc2n1C(C)C,2.12 µM and 5.91 µM,0.334 µM and 0.305 µM,1.32 µM and 0.902 µM,0.334 µM and 0.272 µM,2.66 µM,1.81 µM,–,3.5 µM and 0.772 µM,0.9 µM and 0.652 µM,> 5.87 µM and 20.9 µM,–,–,–,–,–,–,–,–,0.222 µM and 0.23 µM,–
Cc1ccc(C)c(C2=C(c3cn(C)c4ccccc34)C(=O)NC2=O)c1,> 25 µM,> 25 µM,> 25 µM,> 25 µM,> 25 µM,–,–,> 25 µM,> 25 µM,16.2 µM,> 25 µM,> 25 µM,1.15 µM,18.9 µM,–,–,12.1 µM,> 25 µM,6.7 µM,> 25 µM
Cc1ccc(S(=O)(=O)N(CC(=O)O)c2ccccc2)cc1,> 100 µM,> 100 µM,> 100 µM,> 100 µM,> 100 µM,> 100 µM,> 100 µM,–,> 100 µM,> 100 µM,–,–,–,–,–,–,–,–,–,–
O=C(OC(CNc1cc(=O)n(Cc2ccccc2)c(=O)n1Cc1ccccc1)CN1CCCC1)c1ccccc1 (configuration not stated),> 100 µM,> 100 µM,> 100 µM,> 100 µM,> 100 µM,> 100 µM,–,> 100 µM,> 100 µM,–,> 100 µM,> 100 µM,16.5 µM,> 100 µM,> 100 µM,–,> 100 µM,> 100 µM,–,89.4 µM
CCOc1ccccc1C=C1c2ccccc2C(=O)c2ccccc21,64.5 µM,> 100 µM,18 µM,–,> 100 µM,61.4 µM,72.9 µM,36.3 µM,20.8 µM,8.46 µM,–,–,–,–,–,–,–,–,–,–
C=C1C(=O)OC2CCN3CC=C(COC(=O)C(C)(O)C4(CO4)C1C)C23 (configuration not stated),> 100 µM,> 100 µM,> 100 µM,–,> 100 µM,> 100 µM,> 100 µM,–,> 100 µM,–,–,–,–,–,–,–,–,–,–,–
CCC(C)n1ncn(-c2ccc(N3CCN(c4ccc(OCC5COC(Cn6cncn6)(c6ccc(Cl)cc6Cl)O5)cc4)CC3)cc2)c1=O (configuration not stated),> 100 µM,> 100 µM,32.7 µM,71.2 µM,> 100 µM,> 100 µM,24.5 µM,37 µM,> 100 µM,–,5.91 µM,0.559 µM,11.4 µM,35.8 µM,1.24 µM,0.335 µM,8.97 µM,2.75 µM,–,17.6 µM
NC(=O)NC1C(c2ccccc2)=C1c1ccccc1,39.4 µM,23.4 µM,73.8 µM,–,74.6 µM,60 µM,38.1 µM,> 100 µM,23.6 µM,68.3 µM,–,–,–,–,–,–,–,–,–,–
NC(=Nc1c([N+](=O)[O-])cnc2ccccc12)N1CCOCC1,> 100 µM,> 100 µM,> 100 µM,> 100 µM,> 100 µM,> 100 µM,–,> 100 µM,> 100 µM,> 100 µM,–,–,–,–,–,–,–,–,–,–
COc1cc(C#CC(=O)OC/C=C/c2ccc3c(c2)OCO3)cc(OC)c1OC,79.8 µM,37.2 µM,> 100 µM,–,> 100 µM,76.9 µM,54.5 µM,86 µM,32.8 µM,62.9 µM,–,–,–,–,–,–,–,–,–,–
O=C1NC(=O)C(c2cnc3ccccn23)=C1c1cn2c3c(cc(F)cc13)CN(C(=O)N1CCCCC1)CC2,36.6 µM,22.9 µM,> 59.4 µM,46.3 µM,71.5 µM,–,38.1 µM,40.4 µM,16.8 µM,44.3 µM,13.7 µM,3.05 µM,–,7.85 µM,–,14.8 µM,15 µM,2.81 µM,8.74 µM,7.72 µM
O=C(CCn1[nH]c(=O)c(Cl)c(Cl)c1=O)NO,> 100 µM,> 100 µM,> 100 µM,> 100 µM,> 100 µM,> 100 µM,–,> 100 µM,> 100 µM,> 100 µM,–,–,–,–,–,–,–,–,–,–
